Read-outs that look alike come from different tables or passages of the source.
What was measured:
VEGFR2, unphosphorylated = VEGFR2, unphosphorylated (Homo sapiens (Human), UniProt P35968); experiment: VEGFR ADP GLO Assay; format: biochemical
[1] = target: Tb-labeled inactive PDGFRβ (Homo sapiens (Human), UniProt P09619); experiment: PDGFRβ LanthaScreen Assay; format: binding; settings: read-out: PDGFR Lantha IC50
PDGFRβ = PDGFRβ (Rattus norvegicus (Rat), UniProt Q05030); experiment: PDGFRβ Cellular Assay (PDGFRb P-Y751 HTRF in A10 cells stimulated with PDGF-BB); format: cell-based
Sequence of PDGFRβ (Q05030 32-1097): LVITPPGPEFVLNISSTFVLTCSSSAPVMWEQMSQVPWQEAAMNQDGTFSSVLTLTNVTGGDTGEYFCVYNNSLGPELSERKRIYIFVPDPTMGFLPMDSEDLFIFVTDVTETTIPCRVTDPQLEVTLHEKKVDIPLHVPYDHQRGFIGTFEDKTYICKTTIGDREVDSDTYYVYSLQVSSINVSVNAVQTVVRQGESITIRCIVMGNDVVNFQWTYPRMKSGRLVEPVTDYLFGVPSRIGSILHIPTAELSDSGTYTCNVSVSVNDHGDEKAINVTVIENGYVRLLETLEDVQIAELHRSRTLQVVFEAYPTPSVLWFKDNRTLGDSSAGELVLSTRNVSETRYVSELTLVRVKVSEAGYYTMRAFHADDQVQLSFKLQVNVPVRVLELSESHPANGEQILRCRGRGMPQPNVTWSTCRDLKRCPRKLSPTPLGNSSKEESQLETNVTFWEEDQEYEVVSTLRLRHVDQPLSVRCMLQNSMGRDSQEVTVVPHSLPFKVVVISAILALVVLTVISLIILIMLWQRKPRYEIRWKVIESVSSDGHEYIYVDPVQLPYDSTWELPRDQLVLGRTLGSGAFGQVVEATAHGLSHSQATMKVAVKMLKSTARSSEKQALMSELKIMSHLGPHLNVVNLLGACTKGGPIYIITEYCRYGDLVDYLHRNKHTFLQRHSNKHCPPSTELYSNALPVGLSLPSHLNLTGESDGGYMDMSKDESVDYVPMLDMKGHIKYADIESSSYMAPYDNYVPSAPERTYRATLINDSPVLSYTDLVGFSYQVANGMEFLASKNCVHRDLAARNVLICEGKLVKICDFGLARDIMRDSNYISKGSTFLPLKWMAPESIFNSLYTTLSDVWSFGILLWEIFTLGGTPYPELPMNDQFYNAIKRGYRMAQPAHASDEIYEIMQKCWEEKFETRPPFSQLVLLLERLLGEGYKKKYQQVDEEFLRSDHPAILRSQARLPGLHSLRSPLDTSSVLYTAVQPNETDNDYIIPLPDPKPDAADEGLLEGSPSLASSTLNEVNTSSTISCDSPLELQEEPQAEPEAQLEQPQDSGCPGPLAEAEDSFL
Summary of the method: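 Phospho-Y751 PDGFRβ was measured by HTRF in lysates of A10 rat cells. Cells received compound for 3 hours before PDGF-BB stimulation (100 ng/mL working stock).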

Sequence of VEGFR2, unphosphorylated (P35968 20-1356): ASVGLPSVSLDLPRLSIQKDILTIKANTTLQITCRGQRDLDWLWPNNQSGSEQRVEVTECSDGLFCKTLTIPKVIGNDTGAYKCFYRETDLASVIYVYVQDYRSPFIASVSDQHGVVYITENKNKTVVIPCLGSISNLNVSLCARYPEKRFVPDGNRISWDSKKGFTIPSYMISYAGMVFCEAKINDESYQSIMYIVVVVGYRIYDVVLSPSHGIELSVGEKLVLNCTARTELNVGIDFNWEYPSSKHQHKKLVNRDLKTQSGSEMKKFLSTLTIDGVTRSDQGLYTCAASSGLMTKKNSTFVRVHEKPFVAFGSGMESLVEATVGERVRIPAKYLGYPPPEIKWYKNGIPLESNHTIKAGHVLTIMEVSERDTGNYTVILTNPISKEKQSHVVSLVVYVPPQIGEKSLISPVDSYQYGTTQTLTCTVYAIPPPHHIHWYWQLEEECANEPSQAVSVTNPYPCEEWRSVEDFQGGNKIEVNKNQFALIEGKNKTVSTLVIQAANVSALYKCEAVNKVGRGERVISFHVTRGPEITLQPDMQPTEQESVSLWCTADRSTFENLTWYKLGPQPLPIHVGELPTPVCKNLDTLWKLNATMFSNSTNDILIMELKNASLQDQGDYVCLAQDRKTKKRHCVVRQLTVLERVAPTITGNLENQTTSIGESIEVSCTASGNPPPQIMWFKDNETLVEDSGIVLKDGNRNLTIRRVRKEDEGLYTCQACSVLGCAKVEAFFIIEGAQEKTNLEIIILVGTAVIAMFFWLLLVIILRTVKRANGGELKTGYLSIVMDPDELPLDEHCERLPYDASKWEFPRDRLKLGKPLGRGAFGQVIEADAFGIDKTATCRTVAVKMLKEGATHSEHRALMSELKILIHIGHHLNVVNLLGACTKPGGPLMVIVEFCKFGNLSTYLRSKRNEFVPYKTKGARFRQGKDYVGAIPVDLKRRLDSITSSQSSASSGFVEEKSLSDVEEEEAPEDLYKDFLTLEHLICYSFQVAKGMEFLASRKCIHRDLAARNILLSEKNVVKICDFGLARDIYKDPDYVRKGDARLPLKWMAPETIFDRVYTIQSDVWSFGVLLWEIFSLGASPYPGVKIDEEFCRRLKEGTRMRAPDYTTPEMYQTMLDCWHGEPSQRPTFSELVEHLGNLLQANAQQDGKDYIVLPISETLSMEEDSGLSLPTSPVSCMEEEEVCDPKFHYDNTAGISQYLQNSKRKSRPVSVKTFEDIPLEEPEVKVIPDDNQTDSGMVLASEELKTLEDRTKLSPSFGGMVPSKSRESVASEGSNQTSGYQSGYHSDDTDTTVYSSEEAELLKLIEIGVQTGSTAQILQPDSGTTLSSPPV
Sequence of Tb-labeled inactive PDGFRβ (P09619 33-1106): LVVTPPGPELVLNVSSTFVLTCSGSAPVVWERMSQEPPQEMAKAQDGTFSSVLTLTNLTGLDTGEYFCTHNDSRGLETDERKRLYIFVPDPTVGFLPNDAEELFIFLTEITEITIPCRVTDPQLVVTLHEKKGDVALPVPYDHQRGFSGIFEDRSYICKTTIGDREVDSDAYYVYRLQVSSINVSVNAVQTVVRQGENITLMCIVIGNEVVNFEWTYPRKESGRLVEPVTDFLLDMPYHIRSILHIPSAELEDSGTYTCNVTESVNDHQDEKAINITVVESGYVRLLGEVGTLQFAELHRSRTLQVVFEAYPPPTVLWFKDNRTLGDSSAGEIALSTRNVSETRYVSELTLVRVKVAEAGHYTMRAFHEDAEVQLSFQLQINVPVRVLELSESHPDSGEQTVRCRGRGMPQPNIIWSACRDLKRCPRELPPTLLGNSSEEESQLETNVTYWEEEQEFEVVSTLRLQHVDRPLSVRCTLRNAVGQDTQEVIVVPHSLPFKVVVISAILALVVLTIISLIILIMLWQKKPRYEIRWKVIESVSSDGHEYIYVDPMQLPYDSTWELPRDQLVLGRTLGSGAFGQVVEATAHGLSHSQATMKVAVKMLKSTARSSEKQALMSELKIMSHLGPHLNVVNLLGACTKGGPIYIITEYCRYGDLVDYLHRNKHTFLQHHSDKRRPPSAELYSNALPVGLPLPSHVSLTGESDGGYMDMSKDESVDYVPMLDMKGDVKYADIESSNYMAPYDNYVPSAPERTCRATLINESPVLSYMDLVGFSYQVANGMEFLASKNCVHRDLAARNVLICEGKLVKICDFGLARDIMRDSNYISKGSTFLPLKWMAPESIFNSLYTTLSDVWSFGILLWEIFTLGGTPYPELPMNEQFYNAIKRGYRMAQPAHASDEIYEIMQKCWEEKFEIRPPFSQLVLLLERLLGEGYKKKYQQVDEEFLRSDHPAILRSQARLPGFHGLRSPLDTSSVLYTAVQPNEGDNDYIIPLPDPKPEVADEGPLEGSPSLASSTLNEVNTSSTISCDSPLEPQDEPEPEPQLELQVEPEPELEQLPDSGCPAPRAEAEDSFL

`Cc1ncc(NC(=O)CN2CCOC[C@H]2C)cc1NC(=O)c1cnn2cc(-c3cnn(C)c3)sc12` [Example 50, (R)-2-(1-methyl-1H-pyrazol-4-yl)-N-(2-methyl-5-(2-(3-methylmorpholino)acetamido)pyridin-3-yl)pyrazolo[5,1-b]thiazole-7-carboxamide] was tested, and the IC50 (VEGFR2, unphosphorylated) was > 7500 nM, the IC50 [1] was 14 nM and the IC50 (PDGFRβ; PDGFR Cellular IC50) was 27.3 nM.

`Cc1ncc(NC(=O)CN2[C@H](C)COC[C@H]2C)cc1NC(=O)c1cnn2cc(-c3cnn(C)c3)sc12` [Example 51, N-(5-(2-((3R,5R)-3,5-dimethylmorpholino)acetamido)-2-methylpyridin-3-yl)-2-(1-methyl-1H-pyrazol-4-yl)pyrazolo[5,1-b]thiazole-7-carboxamide] was tested, and the IC50 (VEGFR2, unphosphorylated) was > 7500 nM, the IC50 [1] was 4.8 nM and the IC50 (PDGFRβ; read-out: PDGFR Cellular IC50) was 6.8 nM.

For `Cc1ncc(NC(=O)CN2C[C@H](C)O[C@@H](C)C2)cc1NC(=O)c1cnn2cc(-c3cnn(C)c3)sc12` [Example 52, N-(5-(2-((2S,6S)-2,6-dimethylmorpholino)acetamido)-2-methylpyridin-3-yl)-2-(1-methyl-1H-pyrazol-4-yl)pyrazolo[5,1-b]thiazole-7-carboxamide], the IC50 (VEGFR2, unphosphorylated) was > 7500 nM, the IC50 [1] was 0.8 nM and the IC50 (PDGFRβ; read-out: PDGFR Cellular IC50) was 0.9 nM.

For `Cc1ncc(NC(=O)CN2C[C@@H](C)O[C@@H](C)C2)cc1NC(=O)c1cnn2cc(-c3cnn(C)c3)sc12` [Example 53, N-(5-(2-((2R,6S)-2,6-dimethylmorpholino)acetamido)-2-methylpyridin-3-yl)-2-(1-methyl-1H-pyrazol-4-yl)pyrazolo[5,1-b]thiazole-7-carboxamide], the IC50 (VEGFR2, unphosphorylated) was > 7500 nM, the IC50 [1] was 2.7 nM and the IC50 (PDGFRβ; read-out: PDGFR Cellular IC50) was 4.3 nM.

With `Cc1ncc(NC(=O)CN2CCO[C@H](C)C2)cc1NC(=O)c1cnn2cc(-c3cnn(C)c3)sc12` [Example 54, (R)-2-(1-methyl-1H-pyrazol-4-yl)-N-(2-methyl-5-(2-(2-methylmorpholino)acetamido)pyridin-3-yl)pyrazolo[5,1-b]thiazole-7-carboxamide] the IC50 (VEGFR2, unphosphorylated) was > 7500 nM, the IC50 [1] was 12.8 nM and the IC50 (PDGFRβ; read-out: PDGFR Cellular IC50) was 11.4 nM.

For `Cc1ncc(NC(=O)CN2CCOCC2)cc1NC(=O)c1cnn2cc(-c3cnn(C)c3)sc12` [Example 55, 2-(1-methyl-1H-pyrazol-4-yl)-N-(2-methyl-5-(2-morpholinoacetamido)pyridin-3-yl)pyrazolo[5,1-b]thiazole-7-carboxamide], the IC50 (VEGFR2, unphosphorylated) was > 7500 nM, the IC50 [1] was 40.6 nM and the IC50 (PDGFRβ; read-out: PDGFR Cellular IC50) was 87.1 nM.

In the case of `Cc1ncc(NC(=O)CN2CCc3c(cnn3C)C2)cc1NC(=O)c1cnn2cc(-c3cnn(C)c3)sc12` [Example 57, 2-(1-methyl-1H-pyrazol-4-yl)-N-(2-methyl-5-(2-(1-methyl-6,7-dihydro-1H-pyrazolo[4,3-c]pyridin-5 (4H)-yl)acetamido)pyridin-3-yl)pyrazolo[5,1-b]thiazole-7-carboxamide], the IC50 (VEGFR2, unphosphorylated) is reported as > 7500 nM, the IC50 [1] is reported as 10.8 nM and the IC50 (PDGFRβ; read-out: PDGFR Cellular IC50) is reported as 124 nM.

In the case of `Cc1ncc(NC(=O)CN2CCc3ncsc3C2)cc1NC(=O)c1cnn2cc(-c3cnn(C)c3)sc12` [Example 58, N-(5-(2-(6,7-dihydrothiazolo[5,4-c]pyridin-5 (4H)-yl)acetamido)-2-methylpyridin-3-yl)-2-(1-methyl-1H-pyrazol-4-yl)pyrazolo[5,1-b]thiazole-7-carboxamide], the IC50 (VEGFR2, unphosphorylated) is reported as > 7500 nM, the IC50 [1] is reported as 12.5 nM and the IC50 (PDGFRβ; read-out: PDGFR Cellular IC50) is reported as 52.9 nM.

For `Cc1ncc(NC(=O)CN2CCS(=O)(=O)CC2)cc1NC(=O)c1cnn2cc(-c3cnn(C)c3)sc12` [Example 59, N-(5-(2-(1,1-dioxidothiomorpholino)acetamido)-2-methylpyridin-3-yl)-2-(1-methyl-1H-pyrazol-4-yl)pyrazolo[5,1-b]thiazole-7-carboxamide], the IC50 (VEGFR2, unphosphorylated) was > 7500 nM, the IC50 [1] was 93.9 nM and the IC50 (PDGFRβ; read-out: PDGFR Cellular IC50) was > 3000 nM.

In the case of `Cc1ncc(NC(=O)CN2CCc3cccnc3C2)cc1NC(=O)c1cnn2cc(-c3cnn(C)c3)sc12` [Example 60, N-(5-(2-(5,6-dihydro-1,7-naphthyridin-7 (8H)-yl)acetamido)-2-methylpyridin-3-yl)-2-(1-methyl-1H-pyrazol-4-yl)pyrazolo[5,1-b]thiazole-7-carboxamide], the IC50 (VEGFR2, unphosphorylated) is reported as > 7500 nM, the IC50 [1] is reported as 18.3 nM and the IC50 (PDGFRβ; read-out: PDGFR Cellular IC50) is reported as 50.4 nM.

For `Cc1ncc(NC(=O)CN2CCc3scnc3C2)cc1NC(=O)c1cnn2cc(-c3cnn(C)c3)sc12` [Example 61, N-(5-(2-(6,7-dihydrothiazolo[4,5-c]pyridin-5 (4H)-yl)acetamido)-2-methylpyridin-3-yl)-2-(1-methyl-1H-pyrazol-4-yl)pyrazolo[5,1-b]thiazole-7-carboxamide], the IC50 (VEGFR2, unphosphorylated) was > 7500 nM, the IC50 [1] was 12.3 nM and the IC50 (PDGFRβ; read-out: PDGFR Cellular IC50) was 43.6 nM.

With `Cc1ncc(NC(=O)CN2CCc3cnccc3C2)cc1NC(=O)c1cnn2cc(-c3cnn(C)c3)sc12` [Example 62, N-(5-(2-(3,4-dihydro-2,6-naphthyridin-2 (1H)-yl)acetamido)-2-methylpyridin-3-yl)-2-(1-methyl-1H-pyrazol-4-yl)pyrazolo[5,1-b]thiazole-7-carboxamide] the IC50 (VEGFR2, unphosphorylated) was > 7500 nM, the IC50 [1] was 17.6 nM and the IC50 (PDGFRβ; read-out: PDGFR Cellular IC50) was 111 nM.

`Cc1ncc(NC(=O)CN2CCc3ncccc3C2)cc1NC(=O)c1cnn2cc(-c3cnn(C)c3)sc12` [Example 63, N-(5-(2-(7,8-dihydro-1,6-naphthyridin-6 (5H)-yl)acetamido)-2-methylpyridin-3-yl)-2-(1-methyl-1H-pyrazol-4-yl)pyrazolo[5,1-b]thiazole-7-carboxamide] was tested, and the IC50 (VEGFR2, unphosphorylated) was > 7500 nM, the IC50 [1] was 42.9 nM and the IC50 (PDGFRβ; read-out: PDGFR Cellular IC50) was 223 nM.

`Cc1ncc(NC(=O)CN2CCO[C@@H](C)C2)cc1NC(=O)c1cnn2cc(-c3cnn(C)c3)sc12` [Example 64, (S)-2-(1-methyl-1H-pyrazol-4-yl)-N-(2-methyl-5-(2-(2-methylmorpholino)acetamido)pyridin-3-yl)pyrazolo[5,1-b]thiazole-7-carboxamide] was tested, and the IC50 (VEGFR2, unphosphorylated) was > 7500 nM, the IC50 [1] was 6.3 nM and the IC50 (PDGFRβ; read-out: PDGFR Cellular IC50) was 8.6 nM.

For `CC[C@@H]1CN(CC(=O)Nc2cnc(C)c(NC(=O)c3cnn4cc(-c5cnn(C)c5)sc34)c2)CCO1` [Example 65, (R)—N-(5-(2-(2-ethylmorpholino)acetamido)-2-methylpyridin-3-yl)-2-(1-methyl-1H-pyrazol-4-yl)pyrazolo[5,1-b]thiazole-7-carboxamide], the IC50 (VEGFR2, unphosphorylated) was > 7500 nM, the IC50 [1] was 16.5 nM and the IC50 (PDGFRβ; read-out: PDGFR Cellular IC50) was 6.8 nM.

With `CC[C@H]1CN(CC(=O)Nc2cnc(C)c(NC(=O)c3cnn4cc(-c5cnn(C)c5)sc34)c2)CCO1` [Example 66, (S)—N-(5-(2-(2-ethylmorpholino)acetamido)-2-methylpyridin-3-yl)-2-(1-methyl-1H-pyrazol-4-yl)pyrazolo[5,1-b]thiazole-7-carboxamide] the IC50 (VEGFR2, unphosphorylated) was > 7500 nM, the IC50 [1] was 2.6 nM and the IC50 (PDGFRβ; read-out: PDGFR Cellular IC50) was 4.6 nM.

With `Cc1ncc(NC(=O)CN2CCOC(C)(C)C2)cc1NC(=O)c1cnn2cc(-c3cnn(C)c3)sc12` [Example 67, N-(5-(2-(2,2-dimethylmorpholino)acetamido)-2-methylpyridin-3-yl)-2-(1-methyl-1H-pyrazol-4-yl)pyrazolo[5,1-b]thiazole-7-carboxamide] the IC50 (VEGFR2, unphosphorylated) was > 7500 nM, the IC50 [1] was 5.7 nM and the IC50 (PDGFRβ; read-out: PDGFR Cellular IC50) was 8.3 nM.

`Cc1ncc(NC(=O)CN2CCOCC2(C)C)cc1NC(=O)c1cnn2cc(-c3cnn(C)c3)sc12` [Example 68, N-(5-(2-(3,3-dimethylmorpholino)acetamido)-2-methylpyridin-3-yl)-2-(1-methyl-1H-pyrazol-4-yl)pyrazolo[5,1-b]thiazole-7-carboxamide] was tested, and the IC50 (VEGFR2, unphosphorylated) was > 7500 nM, the IC50 [1] was 8.1 nM and the IC50 (PDGFRβ; read-out: PDGFR Cellular IC50) was 19.1 nM.

In the case of `CC[C@@H]1COCCN1CC(=O)Nc1cnc(C)c(NC(=O)c2cnn3cc(-c4cnn(C)c4)sc23)c1` [Example 69, (R)—N-(5-(2-(3-ethylmorpholino)acetamido)-2-methylpyridin-3-yl)-2-(1-methyl-1H-pyrazol-4-yl)pyrazolo[5,1-b]thiazole-7-carboxamide], the IC50 (VEGFR2, unphosphorylated) is reported as > 7500 nM, the IC50 [1] is reported as 4.7 nM and the IC50 (PDGFRβ; read-out: PDGFR Cellular IC50) is reported as 12.1 nM.

In the case of `CC[C@H]1COCCN1CC(=O)Nc1cnc(C)c(NC(=O)c2cnn3cc(-c4cnn(C)c4)sc23)c1` [Example 70, (S)—N-(5-(2-(3-ethylmorpholino)acetamido)-2-methylpyridin-3-yl)-2-(1-methyl-1H-pyrazol-4-yl)pyrazolo[5,1-b]thiazole-7-carboxamide], the IC50 (VEGFR2, unphosphorylated) is reported as > 7500 nM, the IC50 [1] is reported as 2.9 nM and the IC50 (PDGFRβ; read-out: PDGFR Cellular IC50) is reported as 6.4 nM.

`Cc1ncc(NC(=O)CN2[C@H](C)COC[C@@H]2C)cc1NC(=O)c1cnn2cc(-c3cnn(C)c3)sc12` [Example 71, N-(5-(2-((3S,5R)-3,5-dimethylmorpholino)acetamido)-2-methylpyridin-3-yl)-2-(1-methyl-1H-pyrazol-4-yl)pyrazolo[5,1-b]thiazole-7-carboxamide] was tested, and the IC50 (VEGFR2, unphosphorylated) was > 7500 nM, the IC50 [1] was 47.9 nM and the IC50 (PDGFRβ; read-out: PDGFR Cellular IC50) was 90.9 nM.

For `Cc1ncc(NC(=O)CN2CCN(C)C(=O)C2)cc1NC(=O)c1cnn2cc(-c3cnn(C)c3)sc12` [Example 72, 2-(1-methyl-1H-pyrazol-4-yl)-N-(2-methyl-5-(2-(4-methyl-3-oxopiperazin-1-yl)acetamido)pyridin-3-yl)pyrazolo[5,1-b]thiazole-7-carboxamide], the IC50 (VEGFR2, unphosphorylated) was > 7500 nM, the IC50 [1] was 112 nM and the IC50 (PDGFRβ; read-out: PDGFR Cellular IC50) was > 3000 nM.

For `Cc1ncc(NC(=O)CN2CCC(F)(F)C2)cc1NC(=O)c1cnn2cc(-c3cnn(C)c3)sc12` [Example 73, N-(5-(2-(3,3-difluoropyrrolidin-1-yl)acetamido)-2-methylpyridin-3-yl)-2-(1-methyl-1H-pyrazol-4-yl)pyrazolo[5,1-b]thiazole-7-carboxamide], the IC50 (VEGFR2, unphosphorylated) was > 7500 nM, the IC50 [1] was 1.7 nM and the IC50 (PDGFRβ; read-out: PDGFR Cellular IC50) was 3.2 nM.

For `Cc1ncc(NC(=O)CN2CCOC[C@@H]2C)cc1NC(=O)c1cnn2cc(-c3cnn(C)c3)sc12` [Example 74, (S)-2-(1-methyl-1H-pyrazol-4-yl)-N-(2-methyl-5-(2-(3-methylmorpholino)acetamido)pyridin-3-yl)pyrazolo[5,1-b]thiazole-7-carboxamide], the IC50 (VEGFR2, unphosphorylated) was > 7500 nM, the IC50 [1] was 24.2 nM and the IC50 (PDGFRβ; PDGFR Cellular IC50) was 41.6 nM.
